Test results published in patent US20250144067A1, “PERSONALIZED STARVATION THERAPY FOR CANCER” (Faeth Therapeutics, Inc., priority 2021, published 2025).
Structures can show the parent of a compound that is named as a salt. Where two headings read alike, the source gives them in different places.

Assays:
[1] = test system: NCI-H292 lung cancer cells; assay: FDA drug screening, complete media vs cholesterol-free media with simvastatin (TABLE 2); type: cell-based, human
[2] = test system: NCI-H292 lung cancer cells; assay: FDA drug screening, complete media vs cholesterol-free media without statin (TABLE 1); type: cell-based, human
[3] = NCI-H292 cells, cholesterol-free media with simvastatin 0.04 μM, FDA drug library screen (TABLE 2)
[4] = NCI-H292 cells, complete media, FDA drug library screen (TABLE 2)
[5] = complete media minus cholesterol-free media + simvastatin (0.04 μM), >0 enhanced anti-cancer activity, about 0 neutral, <0 antagonist
[6] = Complete minus Cholesterol-free, greater than 0 enhanced anti-cancer activity, about 0 neutral, below 0 antagonists
[7] = NCI-H292 cells in complete media
[8] = NCI-H292 cells, FDA library drug in cholesterol-free media with simvastatin 0.04 μM
[9] = NCI-H292 cells, FDA library drug in complete media
[10] = complete media vs cholesterol-free media + simvastatin (0.04 μM), >0 enhanced anti-cancer activity, about 0 neutral, <0 antagonist
[11] = Complete minus Cholesterol-free, >0 enhanced anti-cancer activity, about 0 neutral, <0 antagonist
[12] = NCI-H292 cells, cholesterol-free media without statin, FDA drug library screen
[13] = NCI-H292 cells, complete media, FDA drug library screen
[14] = NCI-H292 cells, cholesterol-free media with simvastatin 0.04 μM, cell growth value in FDA drug screen
[15] = NCI-H292 cells, complete media, cell growth value in FDA drug screen
[16] = complete media minus cholesterol-free media + simvastatin, >0 enhanced anti-cancer activity, about 0 neutral, <0 antagonist
[17] = Complete minus Cholesterol-free, greater than 0 enhanced anti-cancer activity, about 0 neutral, below 0 antagonist
[18] = NCI-H292 cells, FDA drug library screen, cholesterol-free media without statin
[19] = NCI-H292 cells, FDA drug library screen, complete media
[20] = NCI-H292 cells, cholesterol-free media without statin
[21] = Complete minus Cholesterol-free, […]
[22] = NCI-H292 cells, FDA drug library screen, cholesterol-free media with simvastatin 0.04 μM
[23] = complete vs cholesterol-free media, greater than 0 enhanced anti-cancer activity, about 0 neutral, below 0 antagonists

For `CC(CCc1ccccc1)NCC(O)c1ccc(O)c(C(N)=O)c1` (stereo not shown) [Labetalol (hydrochloride)], the “Cholesterol-free media + simvastatin (0.04 μM)” value [1, 3] was 1.147, the “Complete Media” value [1, 4] was 1.128 and the Difference [1, 5] was −0.02. For the same compound, the Difference [2, 6] was −0.64 and the Complete [2, 7] was 0.9816.
For `CCOC(=O)C1=C(C)NC(C)=C(C(=O)OCC)C1c1ccccc1/C=C/C(=O)OC(C)(C)C` [Lacidipine], the “Cholesterol-free media + simvastatin (0.04 μM)” value [1, 8] was 1.8, the “Complete Media” value [1, 9] was 0.96 and the Difference [1, 10] was −0.84. For the same compound, the Difference [2, 11] was −0.07, the Cholesterol-free [2, 12] was 1.081 and the Complete [2, 13] was 1.013.
For `OC[C@@H](O)[C@@H](O[C@@H]1O[C@H](CO)[C@H](O)[C@H](O)[C@H]1O)[C@H](O)[C@@H](O)CO` [Lactitol (monohydrate)], the “Cholesterol-free media + simvastatin (0.04 μM)” value [1, 14] was 1.183, the “Complete Media” value [1, 15] was 1.215 and the Difference [1, 16] was 0.03. For the same compound, the Difference [2, 17] was −0.17, the Cholesterol-free [2, 18] was 1.059 and the Complete [2, 19] was 0.8908.
In the case of `OC[C@H]1O[C@@H](O[C@H]2[C@H](O)[C@@H](O)[C@@H](O)O[C@@H]2CO)[C@H](O)[C@@H](O)[C@H]1O` [Lactose], the “Complete Media” value [1, 9] is reported as 0.9497, the Difference [1, 10] is reported as −0.28 and the Difference [2, 6] is reported as −0.48. For the same compound, the Complete [2, 7] was 0.6552.
`O=C(C[S+]([O-])Cc1ccco1)NC/C=C\COc1cc(CN2CCCCC2)ccn1` (stereo not shown) [Lafutidine] was tested, and the “Cholesterol-free media + simvastatin (0.04 μM)” value [1, 14] was 1.203, the “Complete Media” value [1, 15] was 1.221 and the Difference [1, 16] was 0.02. For the same compound, the Difference [2, 11] was 0.01, the Cholesterol-free [2, 12] was 1.364 and the Complete [2, 13] was 1.371.
For `Nc1ccn([C@@H]2CS[C@H](CO)O2)c(=O)n1` [Lamivudine], the “Cholesterol-free media + simvastatin (0.04 μM)” value [1, 8] was 1.644, the Difference [1, 10] was −0.47 and the Difference [2, 11] was −0.22. The Cholesterol-free [2, 20] was 1.216 and the Complete ([2]; NCI-H292 cells, complete media) was 0.9947.
With `Nc1nnc(-c2cccc(Cl)c2Cl)c(N)n1` [Lamotrigine] the “Cholesterol-free media + simvastatin (0.04 μM)” value [1, 8] was 1.437, the “Complete Media” value [1, 9] was 1.093 and the Difference [1, 10] was −0.34. It also gave a Difference [2, 17] of −0.08, a Cholesterol-free [2, 18] of 1.043 and a Complete [2, 19] of 0.9644.
In the case of `CC(=O)O[C@H]1C[C@H](O[C@H]2[C@@H](O)C[C@H](O[C@H]3[C@@H](O)C[C@H](O[C@H]4CC[C@@]5(C)[C@H](CC[C@@H]6[C@@H]5C[C@@H](O)[C@]5(C)[C@@H](C7=CC(=O)OC7)CC[C@]65O)C4)O[C@@H]3C)O[C@@H]2C)O[C@H](C)[C@H]1O[C@@H]1O[C@H](CO)[C@@H](O)[C@H](O)[C@H]1O` [Lanatoside C], the “Cholesterol-free media + simvastatin (0.04 μM)” value [1, 3] is reported as −0.002744, the “Complete Media” value [1, 4] is reported as −0.008403 and the Difference ([1]; complete media minus cholesterol-free media + simvastatin (0.04 μM), […]) is reported as −0.01. The Difference [2, 21] was −0.02, the Cholesterol-free [2, 12] was 7.102E−18 and the Complete [2, 13] was −0.02112.
With `CC1(C)OC[C@@H](COC(=O)CCc2ccc(OC[C@@H](O)CNCCNC(=O)N3CCOCC3)cc2)O1` [Landiolol (hydrochloride)] the “Cholesterol-free media + simvastatin (0.04 μM)” value [1, 22] was 1.311, the Difference [1, 10] was −0.14 and the Cholesterol-free [2, 20] was 1.352. For the same compound, the Complete ([2]; NCI-H292 cells, complete media) was 0.8842 and the Difference [2, 23] was −0.47.
With `Cc1c(OCC(F)(F)F)ccnc1C[S+]([O-])c1nc2ccccc2[nH]1` (stereo not shown) [Lansoprazole] the “Cholesterol-free media + simvastatin (0.04 μM)” value [1, 8] was 1.103, the “Complete Media” value [1, 9] was 0.6471 and the Difference [1, 10] was −0.46. The Cholesterol-free [2, 20] was 1.34, the Complete ([2]; NCI-H292 cells, complete media) was 0.9564 and the Difference [2, 23] was −0.38.
For `CS(=O)(=O)CCNCc1ccc(-c2ccc3ncnc(Nc4ccc(OCc5cccc(F)c5)c(Cl)c4)c3c2)o1` [Lapatinib], the “Cholesterol-free media + simvastatin (0.04 μM)” value [1, 14] was 0.4073, the “Complete Media” value [1, 15] was 0.4535 and the Difference [1, 16] was 0.05. The Difference [2, 11] was −0.07, the Cholesterol-free [2, 12] was 0.3435 and the Complete [2, 13] was 0.2753.
For `Br.CCN1C[C@]2(OC(=O)c3ccccc3NC(C)=O)CC[C@H](OC)[C@@]34[C@@H]2C[C@@H]([C@@H]13)[C@@]1(O)C[C@H](OC)[C@H]2C[C@@H]4[C@]1(O)[C@H]2OC` [Lappaconitine (hydrobromide)], the “Cholesterol-free media + simvastatin (0.04 μM)” value [1, 22] was 1.123, the “Complete Media” value [1, 19] was 1.322 and the Difference ([1]; complete media minus cholesterol-free media + simvastatin, […]) was 0.20. The Difference [2, 21] was −0.05, the Cholesterol-free [2, 12] was 1.017 and the Complete [2, 13] was 0.9704.
With `CCN(C(=O)c1c(O)c2c(Cl)cccc2n(C)c1=O)c1ccccc1` [Laquinimod] the “Cholesterol-free media + simvastatin (0.04 μM)” value [1, 3] was 1.3, the “Complete Media” value [1, 4] was 1.306 and the Difference [1, 5] was 0.01. The Difference [2, 17] was −0.15, the Cholesterol-free [2, 18] was 1.127 and the Complete [2, 19] was 0.9797.
With `CS(=O)(=O)c1cc(F)cc2c3c(n(Cc4ccc(Cl)cc4)c12)[C@@H](CC(=O)O)CC3` [Laropiprant] the “Cholesterol-free media + simvastatin (0.04 μM)” value [1] was 0.8957, the “Complete Media” value [1] was 1.455 and the Difference [1] was 0.56. For the same compound, the Cholesterol-free [2] was 1.338, the Complete [2] was 1.092 and the Difference [2] was −0.25.
